This note sets out measurements from patent US20230150986A1, “ANTAGONISTS OF THE MUSCARINIC ACETYLCHOLINE RECEPTOR M4” (Vanderbilt University, priority 2019, published 2023).

A value given as a limit tells only on which side of the number the result lay.

One data set relates to Sprague-Dawley rats. The data set is described as follows: Haloperidol-induced catalepsy assay. Type of data set: in vivo, rat. Conditions: for reversal of catalepsy: haloperidol 1.5 mg/kg i.p. As for the experimental part: Drugs. Compound 1 was weighed and 2% Tween 80/0.5% methylcellulose were placed on top of the compound in serum bottles. This was sonicated for about an hour. All doses were administrated at 10 mL/kg p.o. The final solution is a suspension. Haloperidol was dissolved in 1 mL of 8% lactic acid and taken to 50 mL with sterile water. Haloperidol was dosed at 1 mL/kg i.p.
1. Haloperidol 1.5 mg/kg, i.p.
2. Compound 1, 0.3-3 mg/kg, p.o.
3. Vehicle (2% tween 80/0.5% MC), p.o.
Animals. Male Sprague-Dawley rats weighing between 290-326 grams (Envigo, Inc., Indianapolis, Ind.) were used. They were housed in the animal care facility certified by the American Association for the Accreditation of Laboratory Animal Care (AAALAC) under a 12-hour light/dark cycle (lights on: 7 a.m.; lights off: 7 p.m.) and had free access to food and water. The experimental protocols performed during the light cycle were approved by the Institutional Animals Care and Use Committee of Vanderbilt University and conformed to the guidelines established by the National Research Council Guide for the Care and Use of Laboratory Animals.
Haloperidol-induced catalepsy. Adult male Sprague-Dawley rats are injected with 1.5 mg/kg of haloperidol i.p. Thirty minutes later, the animals are administered 0.3-3 mg/kg of Compound 1 or vehicle. Cataleptic behavior is determined 60 minutes later by placing the forelimbs on a bar raised 6 cm above the table and recording the amount of time it takes for the rat to withdraw the forelimbs with a cutoff of 60 seconds. Data are expressed as mean latency to withdraw ±SEM or percent inhibition of catalepsy ±SEM.
Data Analysis. The data for these dose-response studies were analyzed by a one way analysis of variance. If there was a main effect of dose, then each dose group was compared with each of the other treated groups using GraphPad Prism (version 4.03, GraphPad, La Jolla, Calif.).

The next data set addresses T1, P-gp (Homo sapiens, UniProt P08183).
T1 construct: expressed in transfected cells; host or cells: MDR1-MDCK
Put plainly: P-gp efflux in MDR1-MDCK cell monolayers. Type of data set: in vitro ADME. The note with it: dog, pH 7.4, MDCK-MDR1, 5 μM. As for the experimental part: MDR1-MDCK cell monolayers were grown to confluence on collagen-coated, microporous membranes in 12-well assay plates. The permeability assay buffer was Hanks' balanced salt solution containing 10 mM HEPES and 15 mM glucose at a pH of 7.4. The buffer in the receiver chamber also contained 1% bovine serum albumin. The dosing solution concentration was 5 μM of test article in the assay buffer. Cell monolayers were dosed on the apical side (A- to -B) or basolateral side (B- to -A) and incubated at 37° C. with 5% CO2 in a humidified incubator. Samples were taken from the donor and receiver chambers at 120 minutes Each determination was performed in duplicate. The flux of lucifer yellow was also measured post-experimentally for each monolayer to ensure no damage was inflicted to the cell monolayers during the flux period. All samples were assayed by LC-MS/MS using electrospray ionization.

A further data set has as its target T2, cytochrome P450 2C9 (Homo sapiens, UniProt P11712).
T2 construct: human liver microsomes (HLM; 0.1 mg/mL); from tissue; host or cells: human liver microsomes
Put plainly: Cytochrome P450 cocktail inhibition assay, 2C9 (diclofenac). The class given is in vitro ADME. The note with it: human liver microsomes 0.1 mg/mL; read-out: CYP Inhibition (2C9). As for the experimental part:
Solutions of substrates for cytochrome P450 enzymes (1A2: Phenacetin, 10 μM; 2C9: Diclofenac, 5 μM; 2D6: Dextromethorphan, 5 μM; 3A4: Midazolam, 2 μM; as a mixture), test compound (VU6028418; multiple concentrations), and the positive control for pan-P450 inhibition (miconazole; multiple concentrations) were prepared. A reaction mixture of assay buffer (100 mM Kpi at pH 7.4), human liver microsomes (HLM; 0.1 mg/mL), and the substrate mixture were aliquoted into a 96-deepwell plate. The test compound and control were then added to the plate such that the final concentration of test compound ranged from 0.1-30 μM (two replicates per concentration). The assay plate was vortexed (briefly) and pre-incubated at 37° C. in an orbital shaker for 15 minutes. The reaction was initiated by addition of NADPH (1 mM, final concentration) and continued for 8 min before it was quenched by acetonitrile (2× volume) containing an LCMS internal standard (carbamazepine, 50 nM). The plate was then centrifuged (4000 rcf, 4° C., 10 min), and the resulting supernatant was diluted with water (1× volume) for LC-MS/MS. Assay samples were analyzed via electrospray ionization on an AB Sciex API-4000 (Foster City, Calif.) triple-quadrupole mass spectrometer coupled to Agilent Technologies 1290 Infinity series pumps (Santa Clara, Calif.), and a Leap Technologies CTC PAL auto -sampler (Carrboro, NC). Analytes were separated by gradient elution on a Phenomenex Kinetex (C18 2.1×50 mm 5 μm) column (Torrance, Calif.) thermostated at 40° C. The HPLC mobile phase A was 0.1% formic acid in water (pH unadjusted), and the mobile phase B was 0.1% formic acid in acetonitrile (pH unadjusted). […] The total run time was 2.5 min and the HPLC flow rate was 0.5 mL/min. The source temperature was set at 500° C. and mass spectral analyses were performed using multiple reaction monitoring (MRM) with mass transitions specific to each substrate's metabolite utilizing a Turbo-Ionspray® source in positive ionization mode (5.0 kV spray voltage). The test compound and control IC50 values for each enzyme were obtained by quantitating the inhibition of metabolite formation for each substrate. A 0 μM test compound (or control) conditions represented 100% enzymatic activity, and the effect of increasing test compound concentrations on enzymatic activity was then calculated from the % of control activity. Inhibition curves were fitted using XLfit 5.2.2 (four-parameter logistic model, equation 201) in order to calculate the concentration that produced half-maximal inhibition (IC50) of each enzyme.

T1 sequence (P08183 whole entry): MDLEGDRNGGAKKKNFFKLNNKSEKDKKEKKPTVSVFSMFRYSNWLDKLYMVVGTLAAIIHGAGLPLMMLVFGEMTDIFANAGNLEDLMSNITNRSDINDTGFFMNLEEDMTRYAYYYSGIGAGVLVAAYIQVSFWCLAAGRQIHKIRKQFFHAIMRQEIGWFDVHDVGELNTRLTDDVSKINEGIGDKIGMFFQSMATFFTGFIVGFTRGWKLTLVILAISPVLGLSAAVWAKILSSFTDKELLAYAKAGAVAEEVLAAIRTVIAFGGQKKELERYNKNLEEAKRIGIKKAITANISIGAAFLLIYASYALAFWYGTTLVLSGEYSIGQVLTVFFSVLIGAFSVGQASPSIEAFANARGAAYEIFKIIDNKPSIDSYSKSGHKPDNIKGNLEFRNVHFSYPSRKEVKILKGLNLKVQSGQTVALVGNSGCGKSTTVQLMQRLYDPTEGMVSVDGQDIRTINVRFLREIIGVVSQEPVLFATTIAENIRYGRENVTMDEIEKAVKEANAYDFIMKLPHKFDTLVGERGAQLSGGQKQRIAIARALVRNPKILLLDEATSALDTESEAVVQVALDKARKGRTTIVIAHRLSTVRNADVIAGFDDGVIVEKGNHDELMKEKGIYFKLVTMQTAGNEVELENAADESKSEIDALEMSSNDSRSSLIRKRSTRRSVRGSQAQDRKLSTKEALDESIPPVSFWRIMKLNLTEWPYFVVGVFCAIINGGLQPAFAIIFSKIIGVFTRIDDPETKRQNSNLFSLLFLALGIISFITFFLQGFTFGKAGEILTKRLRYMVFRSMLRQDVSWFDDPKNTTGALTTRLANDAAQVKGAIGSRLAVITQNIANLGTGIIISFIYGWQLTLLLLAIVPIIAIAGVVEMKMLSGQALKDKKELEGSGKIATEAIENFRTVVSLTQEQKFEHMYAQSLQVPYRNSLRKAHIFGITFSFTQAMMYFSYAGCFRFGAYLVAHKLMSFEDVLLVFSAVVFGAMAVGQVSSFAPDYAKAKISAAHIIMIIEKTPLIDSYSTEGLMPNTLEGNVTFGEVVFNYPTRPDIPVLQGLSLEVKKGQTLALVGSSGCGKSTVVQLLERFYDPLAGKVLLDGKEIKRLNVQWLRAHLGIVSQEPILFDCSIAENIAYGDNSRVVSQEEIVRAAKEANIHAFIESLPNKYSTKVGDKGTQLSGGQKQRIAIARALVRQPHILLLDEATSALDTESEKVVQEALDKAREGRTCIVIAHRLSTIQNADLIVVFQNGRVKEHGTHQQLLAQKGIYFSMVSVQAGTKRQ
T2 sequence (P11712 whole entry): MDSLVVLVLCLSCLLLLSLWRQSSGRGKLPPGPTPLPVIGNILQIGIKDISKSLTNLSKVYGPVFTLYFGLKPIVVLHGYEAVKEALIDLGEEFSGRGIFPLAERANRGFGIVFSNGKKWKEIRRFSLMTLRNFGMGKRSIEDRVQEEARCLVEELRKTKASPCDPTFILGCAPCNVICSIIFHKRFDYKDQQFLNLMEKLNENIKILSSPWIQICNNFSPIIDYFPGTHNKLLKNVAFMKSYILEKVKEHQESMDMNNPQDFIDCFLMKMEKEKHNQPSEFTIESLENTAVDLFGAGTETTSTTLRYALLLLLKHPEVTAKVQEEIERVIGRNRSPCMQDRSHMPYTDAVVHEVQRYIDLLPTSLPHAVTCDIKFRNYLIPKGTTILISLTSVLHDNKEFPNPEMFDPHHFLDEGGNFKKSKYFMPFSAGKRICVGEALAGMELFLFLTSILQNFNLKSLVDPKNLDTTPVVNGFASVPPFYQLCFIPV

In the case of `Fc1cc(F)c(F)c(-c2ccc(N[C@H]3C[C@@H]4CN(CC5CCOCC5)C[C@@H]4C3)nn2)c1` [Compound 1, (3aR,5s,6aS)-2-((tetrahydro-2H-pyran-4-yl)methyl)-N-(6-(2,3,5-trifluorophenyl)pyridazin-3-yl)octahydrocyclopenta[c]pyrrol-5-amine], the “reversal of cataleptic behavior” value in the data set with Sprague-Dawley rats (0.3 mg/kg) is given as 26.2 0/0. Besides, the reversal of catalepsy in the data set on Sprague-Dawley rats (1 mg/kg p.o., rat, p<0.01) came to 50.9%; in the data set with Sprague-Dawley rats (3 mg/kg p.o., rat, p<0.001) it was 65.2%. In addition, in the data set with Sprague-Dawley rats (0.3-3 mg/kg p.o., rat, F3,36=8.7 p<0.001), the “latency to withdraw (forelimbs) compared to vehicle treated control animals” value was “significantly reduced”. Also, on P-gp, the efflux ratio at 120 min, 5 μM turned out to be 8.9. For the same compound, on cytochrome P450 2C9, the IC50 stood at 9.8 µM.

Consider `Fc1cc(F)c(F)c(-c2ccc(N[C@H]3C[C@@H]4CN(Cc5ccccn5)C[C@@H]4C3)nn2)c1` [Compound 2, (3aR,5s,6aS)-2-(pyridin-2-ylmethyl)-N-(6-(2,3,5-trifluorophenyl)pyridazin-3-yl)octahydrocyclopenta[c]pyrrol-5-amine], for which, at P-gp, the efflux ratio at 120 min, 5 μM was 2.6. For the same compound, the IC50 on cytochrome P450 2C9 was above 30 µM.
